Assay results as given in patent US20120214802A1, “PYRROLIDINE COMPOUNDS WHICH INHIBIT BETA-SECRETASE ACTIVITY AND METHODS OF USE THEREOF” (priority 2009, published 2012).

What was measured:
[1] = biological target: memapsin 2 (Homo sapiens, UniProt P56817); assay: Inhibition of memapsin 2 beta-secretase activity (fluorogenic substrate FS-2); format: biochemical; conditions: pH 4, 37° C., read-out: M2 Ki
Protocol: Potency of compounds were determined by measurement of their inhibition of memapsin 2 activity toward a fluorescent substrate. Kinetic inhibition experiments were performed using the procedure as described in Ermolieff, et al. (Biochemistry 39:12450-12456 (2000), the teachings of which are incorporated hereby in their entirety). Briefly, assays were performed at pH 4, 37° C., by pre-incubation of memapsin 2 enzyme with compound for 20 minutes. Activity measurements were initiated by addition of a fluorogenic substrate FS-2 (Bachem Americas, Torrance, Calif.) MCA-SEVNLDAEFR-DNP (SEQ ID NO.: 2). The substrate was derived from 10 amino acids of the human amyloid precursor protein (APP), with the Swedish variant amino acids at the beta-secretase cleavage site. The terminal amino acid was modified from arginine to lysine to facilitate derivatization with a functional group for detection by autofluorescence. The amino acid sequence of the “core” peptide of the substrate is SEVNLDAEFK (SEQ ID NO.: 3). The amino terminus was derivatized with (7-methoxycoumarin-4-yl)acetyl (MCA), and the epsilon amine of the lysine side chain of the terminal residue (K in sequence SEVNLDAEFK (SEQ ID NO.: 3)) was derivatized with 2,4-dinitorphenyl (DNP).

[2] = biological target: T1, memapsin 2 (Cricetulus griseus, UniProt G3IAK4); assay: Cellular Aβ IC50 determination (Aβ40 sandwich ELISA); format: cell-based, Chinese hamster; conditions: CHO cells over-expressing human APP695 with London and Swedish mutations, 24 h, read-out: M2 IC50
T1 construct: endogenous in cells; host or cells: Chinese hamster ovary cells over-expressing human APP695 (London + Swedish)
T1 sequence (G3IAK4 22-501): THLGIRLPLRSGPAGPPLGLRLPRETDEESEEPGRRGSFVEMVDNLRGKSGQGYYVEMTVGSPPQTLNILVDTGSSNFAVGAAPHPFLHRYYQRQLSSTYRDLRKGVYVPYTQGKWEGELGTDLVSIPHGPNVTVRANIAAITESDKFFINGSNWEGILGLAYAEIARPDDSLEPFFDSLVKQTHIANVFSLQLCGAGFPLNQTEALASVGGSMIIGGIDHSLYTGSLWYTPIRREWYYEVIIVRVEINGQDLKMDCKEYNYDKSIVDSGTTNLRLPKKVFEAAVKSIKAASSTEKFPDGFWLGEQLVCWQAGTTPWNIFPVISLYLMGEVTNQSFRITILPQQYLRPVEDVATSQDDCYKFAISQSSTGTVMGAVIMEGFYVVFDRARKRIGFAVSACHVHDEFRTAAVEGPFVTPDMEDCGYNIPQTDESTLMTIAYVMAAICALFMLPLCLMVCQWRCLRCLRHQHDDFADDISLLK
Protocol: The potency of compounds against memapsin 2 activity was determined in a cellular assay of Aβ production. […] Chinese hamster ovary cells that over-express human APP695 with the London and Swedish mutations were seeded in multi-well plates at 10% confluency. Compounds are dissolved in DMSO to concentrations near 1 mM, and diluted into culture media to a final concentration near 4 μM (final 0.4% DMSO). Compounds were diluted serially and applied to cells in multi-well plates 48 h after seeding. Incubation was continued in 5% CO2 at 37° C. for 24 h. Aliquots were removed and assayed for […] using a sandwich ELISA (BioSource International). Amount of Aβ40 over the range of concentration of compounds, relative to control incubations, were fit to a 4-parameter IC50 model.

Sequence of memapsin 2 (Homo sapiens, UniProt P56817) (P56817 46-501): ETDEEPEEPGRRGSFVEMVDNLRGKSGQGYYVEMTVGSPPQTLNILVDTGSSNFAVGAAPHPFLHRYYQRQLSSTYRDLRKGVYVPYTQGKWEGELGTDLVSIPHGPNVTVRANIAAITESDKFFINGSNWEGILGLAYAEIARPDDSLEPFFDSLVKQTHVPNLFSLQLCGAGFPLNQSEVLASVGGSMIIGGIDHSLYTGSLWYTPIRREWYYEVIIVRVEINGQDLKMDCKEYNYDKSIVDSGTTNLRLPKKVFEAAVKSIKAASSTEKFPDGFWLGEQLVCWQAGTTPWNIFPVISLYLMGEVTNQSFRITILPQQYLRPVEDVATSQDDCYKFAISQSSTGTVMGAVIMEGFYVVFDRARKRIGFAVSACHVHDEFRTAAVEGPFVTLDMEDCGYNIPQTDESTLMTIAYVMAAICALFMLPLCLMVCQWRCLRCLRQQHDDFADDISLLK

| SMILES | Ki [1] [nM] | IC50 [2] [nM] |
| --- | --- | --- |
| Cc1csc(CN(C)C(=O)c2cccc(C(=O)N[C@@H](Cc3ccccc3)[C@H](O)[C@H]3CCCN3C(=O)OC(C)(C)C)c2)n1 [1-1, (R)-tert-butyl 2-((1S,2S)-1-hydroxy-2-(3-(methyl((4-methylthiazol-2-yl)methyl)carbamoyl)benzamido)-3-phenylpropyl)pyrrolidine-1-carboxylate] | > 750 | > 1000 |
| Cc1csc(CN(C)C(=O)c2cccc(C(=O)N[C@@H](Cc3ccccc3)[C@H](O)[C@H]3CCCN3)c2)n1 [1-2, N1-((1R,2S)-1-hydroxy-3-phenyl-1-((R)-pyrrolidin-2-yl)propan-2-yl)-N3-methyl-N3-((4-methylthiazol-2-yl)methyl)isophthalamide] | 250 to 750 | > 1000 |
| Cc1coc([C@H]2CCCN2C(=O)c2cccc(C(=O)N[C@@H](Cc3ccccc3)[C@H](O)[C@H]3CCCN3)c2)n1 [1-4, N-((1R,2S)-1-hydroxy-3-phenyl-1-((R)-pyrrolidin-2-yl)propan-2-yl)-3-((R)-2-(4-methyloxazol-2-yl)pyrrolidine-1-carbonyl)benzamide] | 250 to 750 | > 1000 |
| Cc1csc([C@H]2CCCN2C(=O)c2cc(C(=O)N[C@@H](Cc3ccccc3)[C@H](O)[C@H]3CCCN3)cc(C(F)(F)F)c2)n1 [1-72, N-((1R,2S)-1-hydroxy-3-phenyl-1-((R)-pyrrolidin-2-yl)propan-2-yl)-3-((R)-2-(4-methylthiazol-2-yl)pyrrolidine-1-carbonyl)-5-(trifluoromethyl)benzamide] | < 250 |  |
| Cc1csc([C@H]2CCCN2C(=O)c2cc(C(=O)N[C@@H](Cc3ccccc3)[C@H](O)[C@H]3CCCN3)cc(-n3ccnc3)c2)n1 [1-77, N-((1R,2S)-1-hydroxy-3-phenyl-1-((R)-pyrrolidin-2-yl)propan-2-yl)-3-(1H-imidazol-1-yl)-5-((R)-2-(4-methylthiazol-2-yl)pyrrolidine-1-carbonyl)benzamide] | 250 to 750 |  |
| Cc1csc([C@H]2CCCN2C(=O)c2cccc(C(=O)N[C@@H](Cc3ccccc3)[C@@H](O)[C@H]3CCCN3)c2)n1 [1-80, N-((1S,2S)-1-hydroxy-3-phenyl-1-((R)-pyrrolidin-2-yl)propan-2-yl)-3-((R)-2-(4-methylthiazol-2-yl)pyrrolidine-1-carbonyl)benzamide] | > 750 |  |
| CO[C@H]1CN[C@@H]([C@@H](O)[C@H](Cc2ccccc2)NC(=O)c2cc(C(=O)N3CCC[C@@H]3c3nc(C)cs3)cc(-c3ncco3)c2)C1 [1-81, N-((1R,2S)-1-hydroxy-1-((2R,4R)-4-methoxypyrrolidin-2-yl)-3-phenylpropan-2-yl)-3-((R)-2-(4-methylthiazol-2-yl)pyrrolidine-1-carbonyl)-5-(oxazol-2-yl)benzamide] | < 250 |  |
| CO[C@H]1CN[C@@H]([C@H](O)[C@H](Cc2ccccc2)NC(=O)c2cccc(C(=O)N3CCC[C@@H]3c3nc(C)cs3)c2)C1 [1-82, N-((1S,2S)-1-hydroxy-1-((2R,4R)-4-methoxypyrrolidin-2-yl)-3-phenylpropan-2-yl)-3-((R)-2-(4-methylthiazol-2-yl)pyrrolidine-1-carbonyl)benzamide] | < 250 |  |
| CCCN(CCC)C(=O)c1cccc(C(=O)N[C@@H](Cc2ccccc2)[C@H](O)[C@H]2CCCN2)c1 [2-12, N1-((1R,2S)-1-hydroxy-3-phenyl-1-((R)-pyrrolidin-2-yl)propan-2-yl)-N3,N3-dipropylisophthalamide, reference compound] | > 750 |  |
| O=C(N[C@@H](Cc1ccccc1)[C@H](O)[C@H]1CCCN1)c1cccc(CN2CCCC2=O)c1 [2-13, N-((1R,2S)-1-hydroxy-3-phenyl-1-((R)-pyrrolidin-2-yl)propan-2-yl)-3-((2-oxopyrrolidin-1-yl)methyl)benzamide, reference compound] | > 750 |  |
